ChEMBL document CHEMBL1201862, “PubChem BioAssay data set” (2004)
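Dose response: 5 concentrations. Exposure: 48 h. Format: 96-well plates. Endpoint: linear interpolation; highest concentration if not reached. Abbreviation: GI50, concentration required for 50% inhibition of growth.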 Activity calls are given as the source filed them. Rule as the data show it: active = GI50 up to about 1.1 µM and inactive = higher.

Legend:
Experiment in all cases: DTP human tumour cell line panel, 48 h
[1] = tested on: A498
[2] = tested on: TK-10
[3] = tested on: UACC-62
[4] = tested on: CCRF-CEM
[5] = tested on: NCI-H460
[6] = tested on: SK-OV-3
[7] = tested on: NCI-H226
[8] = tested on: KM12
[9] = tested on: MDA-MB-435
[10] = tested on: COLO 205
[11] = tested on: MDA-N
[12] = tested on: SNB-19
[13] = tested on: HOP-62
[14] = tested on: A549
[15] = tested on: LOX IMVI
[16] = tested on: M14
[17] = tested on: SW-620
[18] = tested on: CAKI-1
[19] = tested on: NCI-H522
[20] = tested on: UO-31

Row | SMILES | GI50 [1] | GI50 [2] | GI50 [3] | GI50 [4] | GI50 [5] | GI50 [6] | GI50 [7] | GI50 [8] | GI50 [9] | GI50 [10] | GI50 [11] | GI50 [12] | GI50 [13] | GI50 [14] | GI50 [15] | GI50 [16] | GI50 [17] | GI50 [18] | GI50 [19] | GI50 [20]
1 | COC(=O)c1ccc(C)cc1CC1Cc2ccc(C)cc2C1=O (stereo not given) | 1.53 µM (inactive) | 13 µM (inactive) | 9.53 µM (inactive) | 9.91 µM (inactive) | 6.61 µM (inactive) | 9.08 µM (inactive) | 6.04 µM (inactive) | 4.27 µM (inactive) | 1.63 µM (inactive) | 4.54 µM (inactive) | 1.75 µM (inactive) | 6.24 µM (inactive) | 22 µM (inactive) | 11 µM (inactive) | 5.25 µM (inactive) | 5.7 µM (inactive) | 4.17 µM (inactive) | 7.13 µM (inactive) | 1.47 µM (inactive) | 19.9 µM (inactive)
2 | COc1ccc(-c2c(C(C)=O)c(-c3ccccc3)n(C3OC(CO)C(O)C(O)C3O)c(=S)c2C#N)cc1 (stereo not given) | > 100 µM (inactive) | > 100 µM (inactive) | 43.6 µM (inactive) | > 100 µM (inactive) | > 100 µM (inactive) | > 100 µM (inactive) | > 100 µM (inactive) | > 100 µM (inactive) | > 100 µM (inactive) | > 100 µM (inactive) | > 100 µM (inactive) | > 100 µM (inactive) | > 100 µM (inactive) | > 100 µM (inactive) | > 100 µM (inactive) | > 100 µM (inactive) | > 100 µM (inactive) | > 100 µM (inactive) | > 100 µM (inactive) | 4 µM (inactive)
3 | CN[C@@H](Cc1cccc2ccccc12)C(=O)N[C@@H](CC(C)C)B(O)O | < 0.01 µM (active) | < 0.01 µM (active) | < 0.01 µM (active) | 0.00516 µM (active) | < 0.0113 µM (active) | 0.166 µM (active) | 0.00211 µM (active) | < 0.01 µM (active) | < 0.01 µM (active) | < 0.01 µM (active) | < 0.01 µM (active) | < 0.01 µM (active) | < 0.011 µM (active) | < 0.01 µM (active) | < 0.01 µM (active) | < 0.01 µM (active) | < 0.01 µM (active) | < 0.01 µM (active) | < 0.01 µM (active) | < 0.01 µM (active)
4 | OCc1ccc2c(c1)CC1(C2)Cc2cc3c(cc2C1)CCC3 | 5.86 µM (inactive) | 13 µM (inactive) | 6.53 µM (inactive) | 2.74 µM (inactive) | 3.87 µM (inactive) | 11.4 µM (inactive) | 22.4 µM (inactive) | 1.9 µM (inactive) | 0.204 µM (active) | 2.51 µM (inactive) | 0.339 µM (active) | 4.89 µM (inactive) | 4.7 µM (inactive) | 8.47 µM (inactive) | 3.66 µM (inactive) | 3.27 µM (inactive) | 1.77 µM (inactive) | 6.31 µM (inactive) | 3.52 µM (inactive) | 4.97 µM (inactive)
5 | CCc1nc(N)nc(N)c1-c1ccc([N+](=O)[O-])c(NCc2ccccc2)c1 | 15.5 µM (inactive) | 20.2 µM (inactive) | 15.7 µM (inactive) | 8.85 µM (inactive) | 6.17 µM (inactive) | 20.4 µM (inactive) | 18.7 µM (inactive) | 17.3 µM (inactive) | 14.6 µM (inactive) | 14.7 µM (inactive) | 16 µM (inactive) | 16.4 µM (inactive) | 12.4 µM (inactive) | 6.17 µM (inactive) | 14.5 µM (inactive) | 12.4 µM (inactive) | 12.6 µM (inactive) | 13.7 µM (inactive) | 15.9 µM (inactive) | 6.18 µM (inactive)
6 | O=C1Oc2ccccc2C(=O)/C1=C\Nc1nc(-c2ccc(O)c(O)c2)cs1 | 11.9 µM (inactive) | 3.26 µM (inactive) | 4.83 µM (inactive) | 1.23 µM (inactive) | 5.05 µM (inactive) | 7.24 µM (inactive) | 6.31 µM (inactive) | 9.08 µM (inactive) | 4.88 µM (inactive) | 2.3 µM (inactive) | 4.98 µM (inactive) | 11.7 µM (inactive) | 7.18 µM (inactive) | 6.67 µM (inactive) | 3.55 µM (inactive) | 3.22 µM (inactive) | 2.44 µM (inactive) | 4.63 µM (inactive) | 2.05 µM (inactive) | 2.79 µM (inactive)
7 | O=C(/C=C/c1ccccc1)N1CCCCC1 | > 100 µM (inactive) | > 100 µM (inactive) | > 100 µM (inactive) | > 100 µM (inactive) | > 100 µM (inactive) | > 100 µM (inactive) | > 100 µM (inactive) | > 100 µM (inactive) | > 100 µM (inactive) | > 100 µM (inactive) | > 100 µM (inactive) | > 100 µM (inactive) | > 100 µM (inactive) | > 100 µM (inactive) | > 100 µM (inactive) | > 100 µM (inactive) | > 100 µM (inactive) | > 100 µM (inactive) | > 100 µM (inactive) | > 100 µM (inactive)
8 | Cc1ccc(/N=C2N=C(Cl)/C(=C\c3ccccc3)N\2)cc1 | > 100 µM (inactive) | > 100 µM (inactive) | 4.26 µM (inactive) | > 37.3 µM (inactive) | 78 µM (inactive) | > 100 µM (inactive) | > 100 µM (inactive) | > 22.6 µM (inactive) | 30.6 µM (inactive) | 85.3 µM (inactive) | 51.9 µM (inactive) | > 100 µM (inactive) | > 100 µM (inactive) | > 100 µM (inactive) | 3.76 µM (inactive) | > 100 µM (inactive) | > 25 µM (inactive) | > 100 µM (inactive) | > 100 µM (inactive) | 79.1 µM (inactive)
9 | C=CC[C@]1(/C=N/O)CN(S(=O)(=O)CC[Si](C)(C)C)C[C@H]2CC=CC[C@H]21 | 17.7 µM (inactive) | 19.5 µM (inactive) | 16.6 µM (inactive) | 14 µM (inactive) | 18.4 µM (inactive) | 24.2 µM (inactive) | 19.5 µM (inactive) | 24.6 µM (inactive) | 29.4 µM (inactive) | 17.3 µM (inactive) | 20.3 µM (inactive) | 21.8 µM (inactive) | 20 µM (inactive) | 16 µM (inactive) | 19.7 µM (inactive) | 20.2 µM (inactive) | 18.1 µM (inactive) | 17.1 µM (inactive) | 15.8 µM (inactive) | 26.3 µM (inactive)
10 | OC1c2ccccc2[C@@H]2[C@H]1[C@@H](c1ccccc1)C1(Cc3ccccc3C1O)[C@H]2c1ccccc1 (stereo not given in full) | 10.1 µM (inactive) | 16.1 µM (inactive) | 6.14 µM (inactive) | 3.13 µM (inactive) | 3.13 µM (inactive) | 10.9 µM (inactive) | 5.28 µM (inactive) | 2.77 µM (inactive) | 2.82 µM (inactive) | 1.84 µM (inactive) | 3.85 µM (inactive) | 13.6 µM (inactive) | 10.7 µM (inactive) | 3.86 µM (inactive) | 2.49 µM (inactive) | 4.75 µM (inactive) | 5.01 µM (inactive) | 8.09 µM (inactive) | 3.03 µM (inactive) | 7.52 µM (inactive)
11 | CCOc1c2c(cc3c1C(=O)c1c(OC)cccc1C3=O)C=C(OC)CC2 | > 25 µM (inactive) | > 25 µM (inactive) | 10.3 µM (inactive) | 7.8 µM (inactive) | 13.3 µM (inactive) | > 25 µM (inactive) | > 25 µM (inactive) | 10.6 µM (inactive) | 8.04 µM (inactive) | 21.6 µM (inactive) | 6.49 µM (inactive) | > 25 µM (inactive) | > 25 µM (inactive) | 13.5 µM (inactive) | 16.8 µM (inactive) | 18.8 µM (inactive) | 9.98 µM (inactive) | > 25 µM (inactive) | 10.4 µM (inactive) | 10.9 µM (inactive)
